Assays:
p38α kinase = target: T1, p38α kinase (Homo sapiens, UniProt Q16539); experiment: p38α assay (ADP release coupled to NADH oxidation); assay type: biochemical; conditions: p38 kinase IC50 class, Table 1; read-out: p38α inhibition
T1 construct: purchased Upstate
Method: The p38α assay employed is based on measurement of ADP released in the reaction of interest through NADH oxidation obtained by coupling with pyruvate kinase and lactate dehydrogenase reactions. The assays were performed in 384-well UV-plates. The final volume was 25 uL prepared from the addition of 2.5 uL compound dissolved in 10% DMSO, 17.5 uL of assay buffer and 5 uL of ATP. Assay buffer contains the following reagents to give final concentration in the assay: 25 mM HEPES, 20 mM 2-glycerophosphate, pH 7.6, 10 mM MgCl2, 0.1 mM sodium orthovanadate, 0.5 mM phosphoenolpyruvate, 0.12 mM NADH, 3.1 mg/ml LDH, 6.67 mg/ml pyruvate kinase, 0.25 mM peptide substrate, 2 mM DTT, 0.005% Tween 80 and 20 nM p38α kinase from Upstate. Test compounds are preincubated with p38α kinase for 60 min and the reaction started by addition of ATP to 0.15 mM final concentration. Reaction rates were measured at 340 nm using SpectraMax plate-reading spectrophotometer for 10 min at 37° C. Inhibition data were analyzed by non-linear least-squares regression using SigmaPlot.

human recombinant Jnk2 = human recombinant Jnk2 (Homo sapiens, UniProt P45984); experiment: JNK enzymatic assay (33P incorporation into peptide); assay type: biochemical; conditions: JNK2 kinase IC50 class, Table 1
Method: In a final reaction volume of 20 μL, 5 nM human recombinant Jnk2 was incubated in the absence or presence of putative JNK inhibitors in increasing concentrations with 25 mM HEPES pH 7.5, 20 mM p-glycerophosphate, 10 mM MgCl2, 0.1 mM sodium orthovanadate, 0.005% Tween® 80, 10 uM [γ-^33P-ATP], 500 μM IPTTPITTTYFFFKKK peptide substrate and 2 mM DTT. The reaction was initiated by the addition of the [g-^33P-ATP]. After incubation for 20 minutes at 30° C., the aliquots were transferred onto P30/GF filtermats (PerkinElmer). Each filtermat washed four times in 100 ml 0.5% phosphoric acid, 0.5 mM pyrophosphate, then twice in 50 ml ethanol, dried and sealed into bag containing 5 ml of OptiPhase “SuperMix” liquid scintillation cocktail (PerkinElmer). Radioactivity incorporated into peptide was quantified on Trilux 1450 Microbeta plate-reader. IC50 values were calculated using SigmaPlot.

human recombinant Jnk2, sequence (P45984 whole entry): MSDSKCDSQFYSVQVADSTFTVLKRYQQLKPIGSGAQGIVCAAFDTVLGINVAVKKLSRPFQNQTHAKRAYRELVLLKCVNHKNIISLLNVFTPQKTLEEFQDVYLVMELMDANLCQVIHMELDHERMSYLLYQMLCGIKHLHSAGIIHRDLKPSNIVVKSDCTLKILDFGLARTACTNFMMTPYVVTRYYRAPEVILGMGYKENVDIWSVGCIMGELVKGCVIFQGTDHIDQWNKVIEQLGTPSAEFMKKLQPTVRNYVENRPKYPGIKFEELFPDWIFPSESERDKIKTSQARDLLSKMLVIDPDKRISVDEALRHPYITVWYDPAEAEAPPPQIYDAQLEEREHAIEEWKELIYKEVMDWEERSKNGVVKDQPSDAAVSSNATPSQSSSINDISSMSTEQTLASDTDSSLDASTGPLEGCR
T1 sequence (Q16539 whole entry): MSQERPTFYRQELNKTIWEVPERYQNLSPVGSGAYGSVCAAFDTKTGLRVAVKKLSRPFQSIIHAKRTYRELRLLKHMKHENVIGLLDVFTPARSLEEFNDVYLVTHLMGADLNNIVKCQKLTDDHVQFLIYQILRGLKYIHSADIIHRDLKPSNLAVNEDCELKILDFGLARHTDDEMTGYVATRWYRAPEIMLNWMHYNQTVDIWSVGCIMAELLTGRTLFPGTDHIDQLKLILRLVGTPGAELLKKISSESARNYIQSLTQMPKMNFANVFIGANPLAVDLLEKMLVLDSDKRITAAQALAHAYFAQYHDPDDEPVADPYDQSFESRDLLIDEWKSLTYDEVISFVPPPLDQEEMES

Structure (SMILES): CCOC(=O)c1cc2cnnc(Nc3cc(C(=O)NC4CC4)ccc3OC)n2c1C [Compound 1, 4-(5-Cyclopropylcarbamoyl-2-methoxy-phenylamino)-6-methyl-pyrrolo[1,2-d][1,2,4]triazine-7-carboxylic acid ethyl ester]
- IC50 (p38α kinase): 1 to 10 µM
- IC50 (human recombinant Jnk2): 1 to 10 µM

Structure (SMILES): CCOC(=O)c1cc2cnnc(Nc3cc(-c4nnc[nH]4)ccc3C)n2c1C [Compound 2, 4-[2-Methyl-5-(4H-[1,2,4]triazol-3-yl)-phenylamino]-6-methyl-pyrrolo[1,2-d][1,2,4]triazine-7-carboxylic acid ethyl ester]
- IC50 (p38α kinase): 1 to 10 µM

Structure (SMILES): CCOC(=O)c1cc2cnnc(Nc3cc(C(=O)NC4CC4)ccc3C)n2c1C [Compound 3, 4-(5-Cyclopropylcarbamoyl-2-methyl-phenylamino)-6-methyl-pyrrolo[1,2-d][1,2,4]triazine-7-carboxylic acid ethyl ester]
- IC50 (p38α kinase): < 1 µM
- IC50 (human recombinant Jnk2): < 1 µM

Structure (SMILES): Cc1ccc(C(=O)NC2CC2)cc1Nc1nncc2cc(C(=O)NCc3ccccc3)c(C)n12 [Compound 4, 4-(5-Cyclopropylcarbamoyl-2-methyl-phenylamino)-6-methyl-pyrrolo[1,2-d][1,2,4]triazine-7-carboxylic acid benzylamide]
- IC50 (p38α kinase): < 1 µM
- IC50 (human recombinant Jnk2): < 1 µM

Structure (SMILES): CCOC(=O)Nc1ccc(C)c(Nc2nncc3cc(C(=O)OCC)c(C)n23)c1 [Compound 5, 4-(5-Ethoxycarbonylamino-2-methyl-phenylamino)-6-methyl-pyrrolo[1,2-d][1,2,4]triazine-7-carboxylic acid ethyl ester]
- IC50 (p38α kinase): < 1 µM
- IC50 (human recombinant Jnk2): < 1 µM

Structure (SMILES): CCOC(=O)c1cc2cnnc(Nc3ccc(Cl)cc3)n2c1C [Compound 6]
- IC50 (p38α kinase): 1 to 10 µM
- IC50 (human recombinant Jnk2): 1 to 10 µM

Structure (SMILES): CNC(=O)c1cc2cnnc(Nc3cc(C(=O)NC4CC4)ccc3C)n2c1C [Compound 7]
- IC50 (p38α kinase): < 1 µM
- IC50 (human recombinant Jnk2): < 1 µM

Structure (SMILES): Cc1ccc(C(=O)NC2CC2)cc1Nc1nncc2cc(C(=O)NC3CC3)c(C)n12 [Compound 8]
- IC50 (p38α kinase): < 1 µM
- IC50 (human recombinant Jnk2): 1 to 10 µM

Structure (SMILES): CCNC(=O)c1ccc(C)c(Nc2nncc3cc(C(=O)OCC)c(C)n23)c1 [Compound 9]
- IC50 (p38α kinase): 1 to 10 µM
- IC50 (human recombinant Jnk2): 1 to 10 µM

Structure (SMILES): CCOC(=O)c1cc2cnnc(Nc3ccc(C(=O)OC)cc3)n2c1C [Compound 10]
- IC50 (human recombinant Jnk2): 1 to 10 µM

Structure (SMILES): CCOC(=O)c1cc2cnnc(Nc3cccc(C(=O)NC4CC4)c3)n2c1C [Compound 11]
- IC50 (p38α kinase): 1 to 10 µM
- IC50 (human recombinant Jnk2): 1 to 10 µM

Structure (SMILES): CCOC(=O)c1cc2cnnc(Nc3cc(C(=O)Nc4ccccc4)ccc3C)n2c1C [Compound 12]
- IC50 (p38α kinase): 1 to 10 µM
- IC50 (human recombinant Jnk2): 1 to 10 µM

Structure (SMILES): CCOC(=O)c1cc2cnnc(Nc3cc(-c4ncco4)ccc3C)n2c1C [Compound 13]
- IC50 (human recombinant Jnk2): 1 to 10 µM

Structure (SMILES): CCOC(=O)c1cc2cnnc(Nc3cc(NC(=O)OC(C)C)ccc3C)n2c1C [Compound 14]
- IC50 (p38α kinase): 1 to 10 µM
- IC50 (human recombinant Jnk2): 1 to 10 µM

Structure (SMILES): CCOC(=O)c1cc2cnnc(Nc3ccccc3)n2c1C [Compound 15]
- IC50 (p38α kinase): 1 to 10 µM
- IC50 (human recombinant Jnk2): 1 to 10 µM

Structure (SMILES): CCOC(=O)c1cc2cnnc(Nc3ccccc3C)n2c1C [Compound 16]
- IC50 (p38α kinase): 1 to 10 µM
- IC50 (human recombinant Jnk2): 1 to 10 µM

Structure (SMILES): CCOC(=O)c1cc2cnnc(Nc3cccc(C(=O)O)c3)n2c1C [Compound 17]
- IC50 (human recombinant Jnk2): 1 to 10 µM

Structure (SMILES): CCOC(=O)c1cc2cnnc(Nc3cc(C(=O)O)ccc3C)n2c1C [Compound 18]
- IC50 (p38α kinase): 1 to 10 µM
- IC50 (human recombinant Jnk2): 1 to 10 µM

Structure (SMILES): CCOC(=O)c1cc2cnnc(Nc3cc(NC(C)=O)ccc3C)n2c1C [Compound 19]
- IC50 (p38α kinase): > 10 µM
- IC50 (human recombinant Jnk2): 1 to 10 µM

Structure (SMILES): CCOC(=O)c1cc2cnnc(Nc3cc(C(=O)NCc4ccccc4)ccc3C)n2c1C [Compound 20]
- IC50 (p38α kinase): 1 to 10 µM
- IC50 (human recombinant Jnk2): 1 to 10 µM

Structure (SMILES): CCOC(=O)c1cc2cnnc(Nc3cc(C(=O)NC(C)C)ccc3C)n2c1C [Compound 21]
- IC50 (human recombinant Jnk2): > 10 µM

Structure (SMILES): CCOC(=O)c1cc2cnnc(Nc3cc(C(=O)N4CCOCC4)ccc3C)n2c1C [Compound 22]
- IC50 (human recombinant Jnk2): > 10 µM

Structure (SMILES): CCOC(=O)c1cc2cnnc(Nc3cc(C(N)=O)ccc3C)n2c1C [Compound 23]
- IC50 (human recombinant Jnk2): > 10 µM

Structure (SMILES): CCOC(=O)c1cc2cnnc(Nc3cc(N)ccc3C)n2c1C [Compound 24]
- IC50 (p38α kinase): > 10 µM
- IC50 (human recombinant Jnk2): > 10 µM
